For the assay, the target named is T1, SMARCA2 (Homo sapiens, UniProt P51531).
T1 construct: endogenous in cells; host or cells: HT1080 (CRISPR HiBiT knock-in clone, generated in house)
The assay is described as follows: SMARCA2 HiBiT degradation assay (cellular). To be noted: table head names A549; for DC50: 6 h incubation, HiBiT-tagged SMARCA2, luminescence read-out, read-out: HiBit A549 SMARCA2 IP (nM) 6 h; for Emax: A549, 6 h incubation, Emax = amount of residual protein remaining in the cell following compound treatment. The assay is classed as cell-based. For orientation: The HiBiT peptide binds its large partner to form an active luciferase.

The structures appear in SMILES notation.

T1 sequence (P51531 whole entry): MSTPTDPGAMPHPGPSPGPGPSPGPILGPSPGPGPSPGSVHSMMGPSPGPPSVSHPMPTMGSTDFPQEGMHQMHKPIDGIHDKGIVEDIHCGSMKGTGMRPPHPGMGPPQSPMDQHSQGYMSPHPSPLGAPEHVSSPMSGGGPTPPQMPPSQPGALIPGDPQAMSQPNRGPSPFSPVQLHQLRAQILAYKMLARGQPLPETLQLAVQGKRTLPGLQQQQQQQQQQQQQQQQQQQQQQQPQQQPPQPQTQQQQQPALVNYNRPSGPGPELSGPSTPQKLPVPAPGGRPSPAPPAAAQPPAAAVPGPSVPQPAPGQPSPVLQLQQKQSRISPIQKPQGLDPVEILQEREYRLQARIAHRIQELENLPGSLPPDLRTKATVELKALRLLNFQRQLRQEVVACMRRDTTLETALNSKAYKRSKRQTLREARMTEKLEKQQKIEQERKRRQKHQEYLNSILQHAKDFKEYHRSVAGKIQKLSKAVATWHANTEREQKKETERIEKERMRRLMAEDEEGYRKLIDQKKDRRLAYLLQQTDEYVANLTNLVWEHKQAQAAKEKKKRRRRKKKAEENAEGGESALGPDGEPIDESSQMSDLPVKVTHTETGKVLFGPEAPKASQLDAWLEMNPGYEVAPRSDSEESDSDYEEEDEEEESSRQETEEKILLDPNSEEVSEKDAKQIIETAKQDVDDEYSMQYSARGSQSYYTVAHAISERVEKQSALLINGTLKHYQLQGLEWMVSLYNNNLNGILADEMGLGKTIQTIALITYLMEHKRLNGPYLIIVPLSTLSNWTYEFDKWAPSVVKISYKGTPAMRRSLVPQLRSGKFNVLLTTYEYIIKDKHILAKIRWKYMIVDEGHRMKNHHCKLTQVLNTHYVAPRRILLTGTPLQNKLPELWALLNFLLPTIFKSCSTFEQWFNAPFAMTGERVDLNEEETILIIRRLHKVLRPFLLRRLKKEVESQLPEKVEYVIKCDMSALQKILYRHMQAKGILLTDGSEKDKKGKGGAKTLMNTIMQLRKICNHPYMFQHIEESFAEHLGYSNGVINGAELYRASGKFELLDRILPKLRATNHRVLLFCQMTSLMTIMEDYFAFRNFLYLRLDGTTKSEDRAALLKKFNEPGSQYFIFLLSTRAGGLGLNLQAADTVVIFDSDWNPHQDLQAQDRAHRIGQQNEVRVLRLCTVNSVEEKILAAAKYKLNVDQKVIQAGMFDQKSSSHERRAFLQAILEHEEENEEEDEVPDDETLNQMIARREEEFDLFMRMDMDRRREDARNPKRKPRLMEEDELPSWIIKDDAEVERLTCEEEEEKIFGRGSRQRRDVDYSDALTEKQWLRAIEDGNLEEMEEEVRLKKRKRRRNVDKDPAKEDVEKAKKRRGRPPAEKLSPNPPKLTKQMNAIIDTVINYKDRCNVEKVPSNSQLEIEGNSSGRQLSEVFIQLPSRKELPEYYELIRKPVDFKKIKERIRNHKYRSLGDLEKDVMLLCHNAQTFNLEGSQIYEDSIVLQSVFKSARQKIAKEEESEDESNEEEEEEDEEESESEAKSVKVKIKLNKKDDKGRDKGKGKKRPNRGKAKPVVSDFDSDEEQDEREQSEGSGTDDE

As usually defined, the Emax is the greatest response seen or fitted, relative to the assay's reference. Regarding `Nc1ccccc1-c1cc(N2CC3CCC(C2)N3c2cccc(CN3CCN(C(=O)C4CCN(c5ccc6c(c5)C(=O)N(C5CCC(=O)NC5=O)C6=O)CC4)CC3)c2)c(N)nn1` (centres unmarked) [Example 147, 5-[4-[4-[[3-[3-[3-amino-6-(2-aminophenyl)pyridazin-4-yl]-3,8-diazabicyclo[3.2.1]octan-8-yl]phenyl]methyl]piperazine-1-carbonyl]-1-piperidyl]-2-(2,6-dioxo-3-piperidyl)isoindoline-1,3-dione], the DC50 was found to be 236 nM and the Emax was determined as 69%. For `Nc1nnc(-c2ccccc2O)cc1N1CC2CCC(C1)N2c1cccc(CN2CCC(C(=O)N3CCC(c4ccc(NC5CCC(=O)NC5=O)cc4)CC3)CC2)c1` (racemic) [Example 93, rac-3-[4-[1-[1-[[3-[3-[3-amino-6-(2-hydroxyphenyl)pyridazin-4-yl]-3,8-diazabicyclo[3.2.1]octan-8-yl]phenyl]methyl]piperidine-4-carbonyl]-4-piperidyl]anilino]piperidine-2,6-dione], the DC50 stood at 9 nM and the maximum response (Emax) came out at 52%. Consider `Nc1nnc(-c2ccccc2O)cc1N1CCN(c2cccc(CN3CCN(C(=O)C4CCN(c5ccc6c(c5)C(=O)N(C5CCC(=O)NC5=O)C6=O)CC4)CC3)c2)C2(CC2)C1` (centres unmarked) [Example 127, 5-(4-(4-(3-(7-(3-amino-6-(2-hydroxyphenyl)pyridazin-4-yl)-4,7-diazaspiro[2.5]octan-4-yl)benzyl)piperazine-1-carbonyl)piperidin-1-yl)-2-(2,6-dioxopiperidin-3-yl)isoindoline-1,3-dione], for which the Emax amounted to 26%. With `Nc1nnc(-c2ccccc2O)cc1N1CC2CCC(C1)N2c1cccc(CN2CCN(C(=O)CCC3CCN(c4ccc5c(c4)C(=O)N(C4CCC(=O)NC4=O)C5=O)CC3)CC2)n1` (racemic) [Example 133, rac-5-[4-[3-[4-[[6-[3-[3-amino-6-(2-hydroxyphenyl)pyridazin-4-yl]-3,8-diazabicyclo[3.2.1]octan-8-yl]-2-pyridyl]methyl]piperazin-1-yl]-3-oxo-propyl]-1-piperidyl]-2-(2,6-dioxo-3-piperidyl)isoindoline-1,3-dione], the DC50 stood at 64 nM and the Emax was found to be 44%. On to `Nc1nnc(-c2ccccc2O)cc1N1CCC(NC(=O)CC2CCN(C(=O)C3CCN(c4ccc5c(c4)C(=O)N(C4CCC(=O)NC4=O)C5=O)CC3)CC2)(c2ccccc2)CC1` (centres unmarked) [Example 184, N-[1-[3-amino-6-(2-hydroxyphenyl)pyridazin-4-yl]-4-phenyl-4-piperidyl]-2-[1-[1-[2-(2,6-dioxo-3-piperidyl)-1,3-dioxo-isoindolin-5-yl]piperidine-4-carbonyl]-4-piperidyl]acetamide], for which the DC50 was 494 nM and the Emax was found to be 65%. `Nc1nnc(-c2ccccc2O)cc1N1CCN(c2cccc(CN3CCN(C(=O)COc4ccc5c(c4)C(=O)N(C4CCC(=O)NC4=O)C5=O)CC3)c2)C2(CC2)C1` (centres unmarked) [Example 129, 5-(2-(4-(3-(7-(3-amino-6-(2-hydroxyphenyl)pyridazin-4-yl)-4,7-diazaspiro[2.5]octan-4-yl)benzyl)piperazin-1-yl)-2-oxoethoxy)-2-(2,6-dioxopiperidin-3-yl)isoindoline-1,3-dione]: the DC50 turned out to be 37 nM and the Emax worked out at 38%. Turning to `Nc1nnc(-c2ccccc2O)cc1OC1CCCN(c2ccc(N3CCN(CCCCCCCCCn4cc(CCNc5cccc6c5C(=O)N(C5CCC(=O)NC5=O)C6=O)nn4)CC3)cc2)C1` (centres unmarked) [Example 110, 4-[2-[1-[9-[4-[4-[3-[3-amino-6-(2-hydroxyphenyl)pyridazin-4-yl]oxy-1-piperidyl]phenyl]piperazin-1-yl]nonyl]triazol-4-yl]ethylamino]-2-(2,6-dioxo-3-piperidyl)isoindoline-1,3-dione], the DC50 came to 276 nM and the Emax was determined as 52%. With `CC(Nc1cccc2c1C(=O)N(C1CCC(=O)NC1=O)C2=O)c1cn(CCCCCCCCCN2CCN(c3ccc(N4CCCC(Oc5cc(-c6ccccc6O)nnc5N)C4)cc3)CC2)nn1` (centres unmarked) [Example 89, 4-[1-[1-[9-[4-[4-[3-[3-amino-6-(2-hydroxyphenyl)pyridazin-4-yl]oxy-1-piperidyl]phenyl]piperazin-1-yl]nonyl]triazol-4-yl]ethylamino]-2-(2,6-dioxo-3-piperidyl)isoindoline-1,3-dione], the DC50 was determined as 55 nM and the Emax amounted to 30%. As to `Nc1nnc(-c2ccccc2O)cc1N1CC2CCC(C1)N2c1cccc(OCCN2CCN(CCCOC3CCN(c4ccc5c(c4)C(=O)N(C4CCC(=O)NC4=O)C5=O)CC3)CC2)c1` (racemic) [Example 36, rac-5-[4-[3-[4-[2-[3-[3-[3-amino-6-(2-hydroxyphenyl)pyridazin-4-yl]-3,8-diazabicyclo[3.2.1]octan-8-yl]phenoxy]ethyl]piperazin-1-yl]propoxy]-1-piperidyl]-2-(2,6-dioxo-3-piperidyl)isoindoline-1,3-dione], the DC50 turned out to be 16 nM and the Emax came out at 27%. Turning to `Nc1nnc(-c2ccccc2O)cc1N1CC2CCC(C1)N2c1cccc(OCCN2CCN(C(=O)N3CCN(c4ccc(NC5CCC(=O)NC5=O)cc4)CC3)CC2)c1` (racemic) [Example 81, rac-3-[4-[4-[4-[2-[3-[3-[3-amino-6-(2-hydroxyphenyl)pyridazin-4-yl]-3,8-diazabicyclo[3.2.1]octan-8-yl]phenoxy]ethyl]piperazine-1-carbonyl]piperazin-1-yl]anilino]piperidine-2,6-dione], the DC50 was found to be 16 nM and the Emax amounted to 56%.

`Nc1nnc(-c2ccccc2O)cc1N1CCC(C(=O)N2CC3(CN(C(=O)CC4CCN(c5ccc6c(c5)C(=O)N(C5CCC(=O)NC5=O)C6=O)CC4)C3)C2)(c2ccccc2)CC1` (centres unmarked) [Example 122, 5-(4-(2-(6-(1-(3-amino-6-(2-hydroxyphenyl)pyridazin-4-yl)-4-phenylpiperidine-4-carbonyl)-2,6-diazaspiro[3.3]heptan-2-yl)-2-oxoethyl)piperidin-1-yl)-2-(2,6-dioxopiperidin-3-yl)isoindoline-1,3-dione]: the DC50 came to 70 nM and the Emax was 29%. Consider `Nc1nnc(-c2ccccc2O)cc1OC1CCCN(c2ccc(N3CCN(C(=O)CCCCCCCCN4CCC(Oc5ccc6c(c5)C(=O)N(C5CCC(=O)NC5=O)C6=O)CC4)CC3)cc2)C1` (centres unmarked) [Example 44, 5-[[1-[9-[4-[4-[3-[3-amino-6-(2-hydroxyphenyl)pyridazin-4-yl]oxy-1-piperidyl]phenyl]piperazin-1-yl]-9-oxo-nonyl]-4-piperidyl]oxy]-2-(2,6-dioxo-3-piperidyl)isoindoline-1,3-dione], for which the DC50 was 133 nM and the Emax was found to be 61%. For `Nc1nnc(-c2ccccc2O)cc1N1CC2CCC(C1)N2c1cccc(OCCN2CCN(C(=O)CCC(=O)N3CCC(Oc4ccc5c(c4)C(=O)N(C4CCC(=O)NC4=O)C5=O)CC3)CC2)c1` (racemic) [Example 10, rac-5-[[1-[4-[4-[2-[3-[3-[3-amino-6-(2-hydroxyphenyl)pyridazin-4-yl]-3,8-diazabicyclo[3.2.1]octan-8-yl]phenoxy]ethyl]piperazin-1-yl]-4-oxo-butanoyl]-4-piperidyl]oxy]-2-(2,6-dioxo-3-piperidyl)isoindoline-1,3-dione], the DC50 is 58 nM and the maximal effect (Emax) stood at 49%. On the same counts, the results for `Nc1nnc(-c2ccccc2O)cc1OC1CCCN(c2ccc(N3CCN(C(=O)CCCCCCCCCCCCCCn4cc(CNc5cccc6c5C(=O)N(C5CCC(=O)NC5=O)C6=O)nn4)CC3)cc2)C1` (centres unmarked) [Example 8, 4-[[1-[15-[4-[4-[3-[3-amino-6-(2-hydroxyphenyl)pyridazin-4-yl]oxy-1-piperidyl]phenyl]piperazin-1-yl]-15-oxo-pentadecyl]triazol-4-yl]methylamino]-2-(2,6-dioxo-3-piperidyl)isoindoline-1,3-dione] are 254 nM and 65%. Take `Nc1nnc(-c2ccccc2O)cc1N1CC2CCC(C1)N2c1cccc(OCCN2CCN(C(=O)CCNC(=O)C3CCN(c4ccc5c(c4)C(=O)N(C4CCC(=O)NC4=O)C5=O)CC3)CC2)c1` (racemic) [Example 42, rac-N-[3-[4-[2-[3-[3-[3-amino-6-(2-hydroxyphenyl)pyridazin-4-yl]-3,8-diazabicyclo[3.2.1]octan-8-yl]phenoxy]ethyl]piperazin-1-yl]-3-oxo-propyl]-1-[2-(2,6-dioxo-3-piperidyl)-1,3-dioxo-isoindolin-5-yl]piperidine-4-carboxamide]: the DC50 was 519 nM and the Emax was found to be 49%. Take `Nc1nnc(-c2ccccc2O)cc1N1CCC(NC(=O)CCCN2CCC(c3ccc(NC4CCC(=O)NC4=O)cc3)CC2)(c2ccccc2)CC1` (centres unmarked) [Example 91, N-[1-[3-amino-6-(2-hydroxyphenyl)pyridazin-4-yl]-4-phenyl-4-piperidyl]-4-[4-[4-[(2,6-dioxo-3-piperidyl)amino]phenyl]-1-piperidyl]butanamide]: the DC50 was 90 nM and the Emax stood at 46%.

Consider `Nc1nnc(-c2ccccc2O)cc1N1CCC(C(=O)N2CCC3(CC2)CN(C(=O)CN2CCC(c4ccc(NC5CCC(=O)NC5=O)cc4)CC2)CCO3)(c2ccccc2)CC1` (centres unmarked) [Example 169, 3-((4-(1-(2-(9-(1-(3-amino-6-(2-hydroxyphenyl)pyridazin-4-yl)-4-phenylpiperidine-4-carbonyl)-1-oxa-4,9-diazaspiro[5.5]undecan-4-yl)-2-oxoethyl)piperidin-4-yl)phenyl)amino)piperidine-2,6-dione], for which the DC50 turned out to be 49 nM and the Emax was 56%. Turning to `Nc1nnc(-c2ccccc2O)cc1N1CC2CCC(C1)N2c1cccc(CN2CCN(CCOC3CCN(c4ccc5c(c4)C(=O)N(C4CCC(=O)NC4=O)C5=O)CC3)CC2)c1` (racemic) [Example 55, rac-5-[4-[2-[4-[[3-[3-[3-amino-6-(2-hydroxyphenyl)pyridazin-4-yl]-3,8-diazabicyclo[3.2.1]octan-8-yl]phenyl]methyl]piperazin-1-yl]ethoxy]-1-piperidyl]-2-(2,6-dioxo-3-piperidyl)isoindoline-1,3-dione], the DC50 worked out at 19 nM and the Emax turned out to be 35%.

The values are drawn from patent publication US20230024096A1, “BIFUNCTIONAL COMPOUNDS FOR THE TREATMENT OF CANCER” (Hoffmann-La Roche Inc., priority 2019, published 2023).
